Source: paper PMC4309172, “Binding of a fluorescence reporter and a ligand to an odorant-binding protein of the yellow fever mosquito, Aedes aegypti” (F1000Research, 2015)

Columns and labels:
[1] = molecular target: T1, AaegOBP1 (odorant-binding protein, also named AaegOBP39) (Aedes aegypti, UniProt Q6Y2R8); test: NPN fluorescence displacement/quenching, pH […]; Kd from decreasing phase only ([…]), fluorescence rises at higher doses
T1 construct: recombinant AaegOBP1 (AY189223), periplasmic expression in BL21(DE3), purified and delipidated
T1 sequence (Q6Y2R8 19-143): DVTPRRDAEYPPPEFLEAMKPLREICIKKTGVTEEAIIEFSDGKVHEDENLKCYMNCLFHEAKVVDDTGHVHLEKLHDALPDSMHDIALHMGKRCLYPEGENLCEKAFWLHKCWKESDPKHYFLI

[2] = molecular target: T1, AaegOBP1 (odorant-binding protein, also named AaegOBP39); test: direct fluorescence titration with NPN, pH […] (Kd […] at pH […])

Compound: CCCCCCCCCC[C@H](OC(C)=O)[C@H]1CCCC(=O)O1 (racemic) [MOP, (5 R,6 S)-6-acetoxy-5-hexadecanolide]
- Kd [1]: 2.64 ± 0.16 µM

Compound: c1ccc(Nc2cccc3ccccc23)cc1 [NPN, N-phenyl-1-naphthylamine]
- Kd [2]: 3.31 ± 0.48 µM
